# Laboratory results reported in patent publication US20050239656A1, “Pyridine compounds or salts thereof and herbicides containing the same” (priority 2002, published 2005).
# What was measured:
# [1] = test system: barnyardgrass; experiment: Test Example 1: foliage treatment, upland pot test; assay type: in vivo, Echinochloa crus-galli L.; details: active ingredient 500 g/ha, observed 18th to 23rd day, 0 = non-treated, 100 = complete kill
# In short: (§1)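 Foliage tx, upland soil pots; stages: wheat 1.3-2.4 L, rice 1.2-2.6 L, soybean 0.1-0.4 L, barnyardgrass 1.3-2.8 L. WP/EC diluted, 500 L/ha water + 0.1% (v/v) agricultural spreader, small sprayer. Visual rating d18–23, 0–100% control.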
# [2] = test system: green foxtail; experiment: Test Example 1: foliage treatment, upland pot test; assay type: in vivo, Setaria viridis L.; details: active ingredient 500 g/ha, observed 18th to 23rd day, 0 = non-treated, 100 = complete kill
# [3] = test system: corn; experiment: Test Example 1: foliage treatment, upland pot test; assay type: in vivo, Zea mays L.; details: crop, active ingredient 500 g/ha, observed 18th to 23rd day, 0 = non-treated, 100 = complete kill
# In short: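 In this upland pot foliage test, corn plants at 2.1 to 3.2 leaf stages were sprayed by a small size sprayer. The spray was a conventionally formulated wettable powder or emulsifiable concentrate weighed to a set active ingredient amount, diluted in water at 500 L/ha, plus 0.1% (v/v) agricultural spreader. Visual assessment on days 18 to 23 gave growth controlling degree (%), where 0 equals untreated and 100 means complete kill.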
# [4] = test system: redroot pigweed; experiment: Test Example 2: soil surface treatment, upland pot test; assay type: in vivo, Amaranthus retroflexus L.; details: active ingredient 500 g/ha, observed 20th to 28th day
# In short: (§2)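 Pre-emergence soil-surface spray, 1 d after sowing; 1/170,000 ha pots, upland soil; WP or EC formulation, set a.i. rate, 1,500 L/ha water; visual growth-control score 0–100% at days 20–28 post-treatment.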
# [5] = test system: rice; experiment: Test Example 1: foliage treatment, upland pot test; assay type: in vivo, Oryza sativa L.; details: crop, active ingredient 500 g/ha, observed 18th to 23rd day, 0 = non-treated, 100 = complete kill
# In short: as §1
# [6] = test system: velvetleaf; experiment: Test Example 1: foliage treatment, upland pot test; assay type: in vivo, Abutilon theophrasti MEDIC.; details: active ingredient 500 g/ha, observed 18th to 23rd day, 0 = non-treated, 100 = complete kill
# [7] = test system: corn; experiment: Test Example 2: soil surface treatment, upland pot test; assay type: in vivo, Zea mays L.; details: active ingredient 500 g/ha, observed 20th to 28th day
# In short: as §2
# [8] = test system: crabgrass; experiment: Test Example 1: foliage treatment, upland pot test; assay type: in vivo, Digitaria sanguinalis L.; details: active ingredient 500 g/ha, observed 18th to 23rd day, 0 = non-treated, 100 = complete kill
# [9] = test system: prickly sida; experiment: Test Example 1: foliage treatment, upland pot test; assay type: in vivo, Sida spinosa L.; details: active ingredient 500 g/ha, observed 18th to 23rd day, 0 = non-treated, 100 = complete kill
# [10] = test system: redroot pigweed; experiment: Test Example 1: foliage treatment, upland pot test; assay type: in vivo, Amaranthus retroflexus L.; details: active ingredient 500 g/ha, observed 18th to 23rd day, 0 = non-treated, 100 = complete kill
# [11] = test system: soybean; experiment: Test Example 2: soil surface treatment, upland pot test; assay type: in vivo, Glycine max Merr.; details: active ingredient 500 g/ha, observed 20th to 28th day
# In short: as §2
# [12] = test system: crabgrass; experiment: as above; assay type: in vivo, Digitaria sanguinalis L.; details: active ingredient 500 g/ha, observed 20th to 28th day
# In short: as §2
# [13] = test system: rice; experiment: as above; assay type: in vivo, Oryza sativa L.; details: active ingredient 500 g/ha, observed 20th to 28th day
# In short: as §2
# [14] = test system: japanese ribbon wapato; experiment: Test Example 3: paddy pot test, application under submerged conditions; assay type: in vivo, Sagittaria pygniaea; details: submerged application at primary leaf stage, visually observed 14 days after application, 0 = non-treated, 100 = complete kill
# In short: (§3)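 Visual rating of growth control (0% equals untreated, 100% complete kill) made 14 days after treatment. Compound, formulated as wettable powder or emulsifiable concentrate and diluted in water, was pipetted under submerged conditions at predetermined active-ingredient doses once weeds reached 0.5-leaf (barnyardgrass, bulrush) or primary-leaf (wapato, from tubers) stage. Pots of greenhouse paddy soil held 3–4 cm flooding.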
# [15] = test system: green foxtail; experiment: Test Example 2: soil surface treatment, upland pot test; assay type: in vivo, Setaria viridis L.; details: active ingredient 500 g/ha, observed 20th to 28th day
# In short: as §2
# [16] = test system: barnyardgrass; experiment: Test Example 3: paddy pot test, application under submerged conditions; assay type: in vivo, Echinochloa crus-galli L.; details: submerged application at 0.5 leaf stage, visually observed 14 days after application, 0 = non-treated, 100 = complete kill
# In short: as §3
# [17] = test system: prickly sida; experiment: Test Example 2: soil surface treatment, upland pot test; assay type: in vivo, Sida spinosa L.; details: active ingredient 500 g/ha, observed 20th to 28th day
# In short: as §2
# [18] = test system: rice (var. Nihonbare); experiment: Test Example 3: paddy pot test, transplanted rice; assay type: in vivo, Oryza sativa L.; details: applied 4th day after transplantation, visually observed 21st day after application, 0 = non-treated, 100 = complete kill
# In short: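 Visual crop-injury rating (0 = as untreated, 100 = complete kill, %) taken 21 days post-application. Treatment: formulated compound, water-diluted, pipetted into 3–4 cm flood water at a preset active-ingredient dose, 4 days after transplanting 2-leaf Nihonbare rice 3 cm deep in puddled paddy soil.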
# [19] = test system: barnyardgrass; experiment: Test Example 2: soil surface treatment, upland pot test; assay type: in vivo, Echinochloa crus-galli L.; details: active ingredient 500 g/ha, observed 20th to 28th day
# In short: as §2
# [20] = test system: japanese bulrush; experiment: Test Example 3: paddy pot test, application under submerged conditions; assay type: in vivo, Scirpus juncoides; details: submerged application at 0.5 leaf stage, visually observed 14 days after application, 0 = non-treated, 100 = complete kill
# In short: as §3
# [21] = test system: velvetleaf; experiment: Test Example 2: soil surface treatment, upland pot test; assay type: in vivo, Abutilon theophrasti MEDIC.; details: active ingredient 500 g/ha, observed 20th to 28th day
# In short: as §2
# [22] = test system: soybean; experiment: Test Example 1: foliage treatment, upland pot test; assay type: in vivo, Glycine max Merr.; details: crop, active ingredient 500 g/ha, observed 18th to 23rd day, 0 = non-treated, 100 = complete kill
# In short: as §1
SMILES,Growth controlling degree (%) Barnyardgrass [1],Growth controlling degree (%) Green foxtail [2],Growth controlling degree (%) Corn [3],Growth controlling degree (%) Redroot pigweed [4],Growth controlling degree (%) Rice [5],Growth controlling degree (%) Velvetleaf [6],Growth controlling degree (%) Corn [7],Growth controlling degree (%) Crabgrass [8],Growth controlling degree (%) Prickly sida [9],Growth controlling degree (%) Redroot pigweed [10],Growth controlling degree (%) Soyabean [11],Growth controlling degree (%) Crabgrass [12],Growth controlling degree (%) Rice [13],Growth controlling degree (%) Green foxtail [15],Growth controlling degree (%) Prickly sida [17],Growth controlling degree (%) Barnyardgrass [19],Growth controlling degree (%) Velvetleaf [21],Growth controlling degree (%) Soybean [22],Growth controlling degree (%) Japanese ribbon wapato ([14]; active ingredient 250 g/ha),Growth controlling degree (%) Barnyardgrass ([16]; active ingredient 250 g/ha),also measured
CC(C)C(c1cnccc1Cl)N(C)C(=O)Cc1ccc(C(F)(F)F)cc1 (centres unmarked) [I-69],10%,30%,60%,50%,10%,95%,20%,90%,80%,70%,40%,98%,10%,85%,80%,95%,20%,60%,–,–,Growth controlling degree (%) Japanese ribbon wapato ([14]; active ingredient 125 g/ha): 40%; Growth controlling degree (%) Barnyardgrass ([16]; active ingredient 125 g/ha): 95%; Growth controlling degree (%) Rice ([18]; active ingredient 125 g/ha): 0%; Growth controlling degree (%) Japanese bulrush ([20]; active ingredient 125 g/ha): 70%
CC(C)C(c1cnccc1Cl)N(C)C(=O)Cc1c(F)cccc1F (centres unmarked) [I-70],40%,60%,50%,70%,20%,80%,0%,80%,80%,50%,0%,98%,40%,70%,50%,80%,0%,30%,–,–,Growth controlling degree (%) Japanese ribbon wapato ([14]; active ingredient 125 g/ha): 40%; Growth controlling degree (%) Barnyardgrass ([16]; active ingredient 125 g/ha): 80%; Growth controlling degree (%) Rice ([18]; active ingredient 125 g/ha): 10%; Growth controlling degree (%) Japanese bulrush ([20]; active ingredient 125 g/ha): 70%
CC(C)C(c1cnccc1C(F)(F)F)N(C)C(=O)Cc1cc(F)ccc1F (centres unmarked) [I-85],80%,85%,60%,90%,40%,90%,10%,90%,80%,70%,40%,100%,10%,100%,100%,100%,80%,80%,70%,100%,Growth controlling degree (%) Rice ([18]; active ingredient 250 g/ha): 0%; Growth controlling degree (%) Japanese bulrush ([20]; active ingredient 250 g/ha): 98%
"CC(C)C(c1cnccc1C(F)(F)F)N(C)S(=O)(=O)c1ccccc1 (centres unmarked) [I-117, N-methyl-N-[2-methyl-1-(4-trifluoromethylpyridin-3-yl)propyl]phenylsulfonamide]",80%,40%,30%,60%,20%,80%,20%,80%,70%,50%,10%,95%,40%,100%,70%,100%,50%,60%,0%,95%,Growth controlling degree (%) Rice ([18]; active ingredient 250 g/ha): 0%; Growth controlling degree (%) Japanese bulrush ([20]; active ingredient 250 g/ha): 98%
CCC(=O)N(C)C(c1cnccc1C(F)(F)F)C(C)C (centres unmarked) [I-163],90%,90%,90%,70%,80%,70%,60%,98%,80%,80%,40%,100%,50%,100%,95%,100%,90%,80%,90%,100%,Growth controlling degree (%) Rice ([18]; active ingredient 250 g/ha): 60%; Growth controlling degree (%) Japanese bulrush ([20]; active ingredient 250 g/ha): 99%
